Measurements published in the NIST ThermoML archive (doi:10.1021/je060271a).
Numbers after ± are expanded uncertainties.

Conditions: 303.15 K, Liquid, Vibrating tube method

CCCCCCC(=O)OCC(COC(=O)CCCCCC)(COC(=O)CCCCCC)COC(=O)CCCCCC [pentaerythritol tetraheptanoate]
Conditions | mass density [kg/m3]
21619 kPa | 983.7 ± 1.2
21662 kPa | 983.7 ± 1.2
21713 kPa | 983.7 ± 1.2
21752 kPa | 983.7 ± 1.2
21789 kPa | 983.5 ± 1.2
21831 kPa | 983.9 ± 1.2
21867 kPa | 983.8 ± 1.2
21902 kPa | 983.8 ± 1.2
22017 kPa | 983.9 ± 1.2
22097 kPa | 984 ± 1.2
22133 kPa | 983.9 ± 1.2
22169 kPa | 984.1 ± 1.2
22213 kPa | 984 ± 1.2
22250 kPa | 983.9 ± 1.2
22286 kPa | 984.1 ± 1.2
22330 kPa | 984.1 ± 1.2
22368 kPa | 984.2 ± 1.2
22406 kPa | 984.1 ± 1.2
22450 kPa | 984.2 ± 1.2
22567 kPa | 984.2 ± 1.2
22651 kPa | 984.2 ± 1.2
22689 kPa | 984.3 ± 1.2
22735 kPa | 984.3 ± 1.2
22774 kPa | 984.3 ± 1.2
22813 kPa | 984.3 ± 1.2
22853 kPa | 984.3 ± 1.2
22901 kPa | 984.4 ± 1.2
23031 kPa | 984.5 ± 1.2
23066 kPa | 984.4 ± 1.2
23098 kPa | 984.5 ± 1.2
23130 kPa | 984.5 ± 1.2
23162 kPa | 984.4 ± 1.2
23201 kPa | 984.5 ± 1.2
23233 kPa | 984.6 ± 1.2
23266 kPa | 984.7 ± 1.2
23304 kPa | 984.6 ± 1.2
23337 kPa | 984.5 ± 1.2
23376 kPa | 984.7 ± 1.2
23409 kPa | 984.6 ± 1.2
23442 kPa | 984.6 ± 1.2
23475 kPa | 984.8 ± 1.2
23516 kPa | 984.8 ± 1.2
23549 kPa | 984.7 ± 1.2
23582 kPa | 984.8 ± 1.2
23622 kPa | 984.7 ± 1.2
23797 kPa | 984.9 ± 1.2
23831 kPa | 985 ± 1.2
23873 kPa | 984.9 ± 1.2
23908 kPa | 985 ± 1.2
23943 kPa | 985 ± 1.2
23985 kPa | 985 ± 1.2
24019 kPa | 984.9 ± 1.2
24054 kPa | 985 ± 1.2
24201 kPa | 985.1 ± 1.2
24243 kPa | 985.2 ± 1.2
24278 kPa | 985.2 ± 1.2
24320 kPa | 985.2 ± 1.2
24392 kPa | 985.2 ± 1.2
24436 kPa | 985.2 ± 1.2
24472 kPa | 985.4 ± 1.2
24509 kPa | 985.1 ± 1.2
24545 kPa | 985.2 ± 1.2
24588 kPa | 985.3 ± 1.2
24624 kPa | 985.4 ± 1.2
24661 kPa | 985.3 ± 1.2
24706 kPa | 985.3 ± 1.2
24743 kPa | 985.5 ± 1.2
24780 kPa | 985.5 ± 1.2
24825 kPa | 985.4 ± 1.2
24863 kPa | 985.4 ± 1.2
24901 kPa | 985.4 ± 1.2
24947 kPa | 985.5 ± 1.2
24984 kPa | 985.5 ± 1.2
25022 kPa | 985.6 ± 1.2
25060 kPa | 985.5 ± 1.2
25106 kPa | 985.6 ± 1.2
25144 kPa | 985.5 ± 1.2
25182 kPa | 985.7 ± 1.2
25228 kPa | 985.7 ± 1.2
25267 kPa | 985.6 ± 1.2
25306 kPa | 985.6 ± 1.2
25353 kPa | 985.7 ± 1.2
25392 kPa | 985.7 ± 1.2
25431 kPa | 985.8 ± 1.2
25472 kPa | 985.7 ± 1.2
25520 kPa | 985.8 ± 1.2
25560 kPa | 986 ± 1.2
25601 kPa | 986 ± 1.2
25648 kPa | 985.9 ± 1.2
25688 kPa | 985.8 ± 1.2
25729 kPa | 985.9 ± 1.2
25778 kPa | 985.9 ± 1.2
25818 kPa | 986 ± 1.2
25860 kPa | 986 ± 1.2
25901 kPa | 986.1 ± 1.2
25951 kPa | 986 ± 1.2
25994 kPa | 986 ± 1.2
26038 kPa | 986 ± 1.2
26079 kPa | 986.1 ± 1.2
26130 kPa | 986.1 ± 1.2
26172 kPa | 986.2 ± 1.2
26215 kPa | 986.2 ± 1.2
26266 kPa | 986.2 ± 1.2
26309 kPa | 986.3 ± 1.2
26347 kPa | 986.3 ± 1.2
26391 kPa | 986.3 ± 1.2
26429 kPa | 986.4 ± 1.2
26466 kPa | 986.4 ± 1.2
26512 kPa | 986.4 ± 1.2
26551 kPa | 986.4 ± 1.2
26590 kPa | 986.3 ± 1.2
26628 kPa | 986.5 ± 1.2
26666 kPa | 986.5 ± 1.2
26712 kPa | 986.5 ± 1.2
26749 kPa | 986.4 ± 1.2
26795 kPa | 986.4 ± 1.2
26834 kPa | 986.6 ± 1.2
26872 kPa | 986.6 ± 1.2
26910 kPa | 986.6 ± 1.2
26957 kPa | 986.6 ± 1.2
26996 kPa | 986.6 ± 1.2
27043 kPa | 986.5 ± 1.2
27083 kPa | 986.7 ± 1.2
27122 kPa | 986.7 ± 1.2
27169 kPa | 986.7 ± 1.2
27209 kPa | 986.8 ± 1.2
27249 kPa | 986.7 ± 1.2
27289 kPa | 987 ± 1.2
27337 kPa | 986.8 ± 1.2
27376 kPa | 986.8 ± 1.2
27425 kPa | 986.9 ± 1.2
27465 kPa | 987 ± 1.2
27506 kPa | 986.9 ± 1.2
27555 kPa | 986.8 ± 1.2
27596 kPa | 986.9 ± 1.2
27638 kPa | 986.9 ± 1.2
27679 kPa | 987.1 ± 1.2
27728 kPa | 987 ± 1.2
27770 kPa | 987 ± 1.2
27811 kPa | 987.1 ± 1.2
27861 kPa | 987.1 ± 1.2
27904 kPa | 987 ± 1.2
27954 kPa | 987.1 ± 1.2
27997 kPa | 987.2 ± 1.2
28082 kPa | 987.3 ± 1.2
28133 kPa | 987.4 ± 1.2
28176 kPa | 987.3 ± 1.2
28221 kPa | 987.4 ± 1.2
28273 kPa | 987.3 ± 1.2
28316 kPa | 987.3 ± 1.2
28360 kPa | 987.4 ± 1.2
28404 kPa | 987.3 ± 1.2
28457 kPa | 987.4 ± 1.2
28501 kPa | 987.5 ± 1.2
28545 kPa | 987.5 ± 1.2
28598 kPa | 987.5 ± 1.2
28642 kPa | 987.5 ± 1.2
28687 kPa | 987.5 ± 1.2
28740 kPa | 987.6 ± 1.2
28785 kPa | 987.6 ± 1.2
28832 kPa | 987.7 ± 1.2
28886 kPa | 987.6 ± 1.2
28932 kPa | 987.7 ± 1.2
28977 kPa | 987.6 ± 1.2
29023 kPa | 987.9 ± 1.2
29079 kPa | 987.7 ± 1.2
29125 kPa | 987.7 ± 1.2
29181 kPa | 987.8 ± 1.2
29227 kPa | 987.9 ± 1.2
29274 kPa | 987.9 ± 1.2
29321 kPa | 987.9 ± 1.2
29379 kPa | 987.9 ± 1.2
29475 kPa | 988 ± 1.2
29523 kPa | 988.1 ± 1.2
29581 kPa | 988 ± 1.2
29630 kPa | 988 ± 1.2
29679 kPa | 988.1 ± 1.2
29739 kPa | 988.1 ± 1.2
29790 kPa | 988.1 ± 1.2
29841 kPa | 988.3 ± 1.2
29903 kPa | 988.1 ± 1.2
29949 kPa | 988.3 ± 1.2
29986 kPa | 988.3 ± 1.2
30029 kPa | 988.3 ± 1.2
30067 kPa | 988.3 ± 1.2
30103 kPa | 988.3 ± 1.2
30138 kPa | 988.3 ± 1.2
30182 kPa | 988.4 ± 1.2
30218 kPa | 988.3 ± 1.2
30253 kPa | 988.3 ± 1.2
30297 kPa | 988.2 ± 1.2
30334 kPa | 988.4 ± 1.2
30370 kPa | 988.5 ± 1.2
30407 kPa | 988.5 ± 1.2
30451 kPa | 988.5 ± 1.2
30489 kPa | 988.5 ± 1.2
30527 kPa | 988.5 ± 1.2
30576 kPa | 988.6 ± 1.2
30613 kPa | 988.5 ± 1.2
30651 kPa | 988.6 ± 1.2
30698 kPa | 988.6 ± 1.2
30738 kPa | 988.8 ± 1.2
30778 kPa | 988.7 ± 1.2
30814 kPa | 988.7 ± 1.2
30846 kPa | 988.7 ± 1.2
30873 kPa | 988.8 ± 1.2
30905 kPa | 988.7 ± 1.2
30932 kPa | 988.8 ± 1.2
30958 kPa | 988.8 ± 1.2
30990 kPa | 988.8 ± 1.2
31018 kPa | 988.8 ± 1.2
31045 kPa | 988.8 ± 1.2
31072 kPa | 988.9 ± 1.2
31105 kPa | 988.9 ± 1.2
31132 kPa | 988.9 ± 1.2
31159 kPa | 988.8 ± 1.2
31192 kPa | 989 ± 1.2
31220 kPa | 988.9 ± 1.2
31252 kPa | 989 ± 1.2
31280 kPa | 988.9 ± 1.2
31308 kPa | 989.1 ± 1.2
31335 kPa | 989 ± 1.2
31369 kPa | 989.1 ± 1.2
31398 kPa | 988.8 ± 1.2
